# Read-outs that look alike come from different tables or passages of the source.
# How the values were obtained:
# Type in all cases: biochemical
# Lck = target: T1, Lck (Homo sapiens, UniProt P06239); assay: Kinase inhibition assay (33P transfer), Lck; conditions: read-out: Lck-1
# T1 construct: Kinases are expressed as either kinase domains or full length constructs; made in house
# Source text: (§1) The inhibitor compounds described herein are screened in the following manner. Kinases suitable for use in the following protocol to determine kinase activity of the compounds described herein include, -but are not limited to: Lck, Lyn, Src, Fyn, Syk, Zap-70, Itk, Tec, Btk, EGFR, ErbB2, Kdr, Flt-1, Flt-3, Tek, c-Met, InsR, and AKT.
# (§2) Kinases are expressed as either kinase domains or full length constructs fused to glutathione S-transferase (GST) or polyHistidine tagged fusion proteins in either E. colior Baculovirus-High Five expression systems. […] In some instances, kinases are co-expressed or mixed with purified or partially purified regulatory polypeptides prior to measurement of activity.
# (§3) Briefly, The transfer of ^33PO4 from ATP to the synthetic substrates poly(Glu, Tyr) 4:1 or poly(Arg, Ser) 3:1 attached to the bioactive surface of microtiter plates serves as the basis to evaluate enzyme activity. After an incubation period, the amount of phosphate transferred is measured by first washing the plate with 0.5% phosphoric acid, adding liquid scintillant, and then counting in a liquid scintillation detector.
# Zap-70 = target: T2, Zap-70 (Homo sapiens, UniProt P43403); assay: Kinase inhibition assay (33P transfer), Zap-70; conditions: read-out: Zap-1
# T2 construct: Kinases are expressed as either kinase domains or full length constructs; made in house
# T2 sequence (P43403 1-619): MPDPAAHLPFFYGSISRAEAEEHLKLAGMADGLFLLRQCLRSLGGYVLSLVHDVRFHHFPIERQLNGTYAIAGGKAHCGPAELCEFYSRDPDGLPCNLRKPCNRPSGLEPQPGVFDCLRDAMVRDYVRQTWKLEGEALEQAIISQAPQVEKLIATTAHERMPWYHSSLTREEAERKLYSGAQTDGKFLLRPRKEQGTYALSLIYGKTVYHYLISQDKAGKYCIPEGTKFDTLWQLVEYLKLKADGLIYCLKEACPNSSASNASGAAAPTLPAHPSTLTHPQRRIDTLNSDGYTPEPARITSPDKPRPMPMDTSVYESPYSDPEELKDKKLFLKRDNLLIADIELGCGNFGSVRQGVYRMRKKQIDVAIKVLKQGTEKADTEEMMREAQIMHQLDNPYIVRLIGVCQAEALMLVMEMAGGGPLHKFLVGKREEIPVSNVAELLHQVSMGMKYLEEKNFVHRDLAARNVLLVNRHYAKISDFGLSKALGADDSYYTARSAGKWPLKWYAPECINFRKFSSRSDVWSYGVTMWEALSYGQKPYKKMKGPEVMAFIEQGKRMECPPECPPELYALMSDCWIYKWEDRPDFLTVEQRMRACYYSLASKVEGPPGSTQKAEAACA
# Source text: as §1, §2, §3
# Itk = target: T3, Itk (Homo sapiens, UniProt Q08881); assay: Kinase inhibition assay (33P transfer), Itk; conditions: read-out: Itk-1
# T3 construct: Kinases are expressed as either kinase domains or full length constructs; made in house
# T3 sequence (Q08881 1-620): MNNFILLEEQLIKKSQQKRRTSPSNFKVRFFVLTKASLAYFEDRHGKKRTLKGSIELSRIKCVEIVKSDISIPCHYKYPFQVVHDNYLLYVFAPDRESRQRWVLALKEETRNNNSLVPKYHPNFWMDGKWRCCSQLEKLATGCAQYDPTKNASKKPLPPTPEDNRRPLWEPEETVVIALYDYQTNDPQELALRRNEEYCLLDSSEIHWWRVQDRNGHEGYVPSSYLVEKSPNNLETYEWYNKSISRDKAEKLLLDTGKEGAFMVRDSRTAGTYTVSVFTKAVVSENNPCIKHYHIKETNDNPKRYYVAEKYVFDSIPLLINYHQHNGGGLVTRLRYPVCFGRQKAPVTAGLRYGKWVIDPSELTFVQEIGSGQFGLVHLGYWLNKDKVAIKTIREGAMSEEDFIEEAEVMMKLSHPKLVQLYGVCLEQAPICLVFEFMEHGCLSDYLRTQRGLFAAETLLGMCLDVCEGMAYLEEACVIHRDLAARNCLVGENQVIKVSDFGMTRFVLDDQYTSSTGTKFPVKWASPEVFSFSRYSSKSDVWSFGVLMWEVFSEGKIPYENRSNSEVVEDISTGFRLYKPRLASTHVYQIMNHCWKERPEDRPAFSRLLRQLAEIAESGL
# Source text: as §1
# (§4) Kinases are expressed as either kinase domains or full length constructs fused to glutathione S-transferase (GST) or polyHistidine tagged fusion proteins in either E. colior Baculovirus-High Five expression systems. They are purified to near homogeneity by affinity chromatography essentially as previously described (Lehr et al., 1996; Gish et al., 1995). In some instances, kinases are co-expressed or mixed with purified or partially purified regulatory polypeptides prior to measurement of activity.
# as §3, with “Kinase activity and inhibition are measured essentially by established protocols (Braunwalder et al., 1996). Briefly,” for “Briefly,”, “detector. The IC50 is determined by the concentration of compound that causes a 50% reduction in the amount of […] incorporated onto the substrate bound to the plate.” for “detector.”
# EGFR = target: T4, EGFR (Homo sapiens, UniProt P00533); assay: Kinase inhibition assay (33P transfer), EGFR; conditions: Table 2, kinase inhibition class; read-out: EGFR-1
# T4 construct: Kinases are expressed as either kinase domains or full length constructs; made in house
# Source text: as §1, §4
# as §3, with “Kinase activity and inhibition are measured essentially by established protocols (Braunwalder et al., 1996). Briefly,” for “Briefly,”, “detector. The IC50 is determined by the concentration of compound that causes a 50% reduction in the amount of […] incorporated onto the substrate bound to the plate.” for “detector.”
# Kdr = target: T5, Kdr (Homo sapiens, UniProt P35968); assay: Kinase inhibition assay (33P transfer), Kdr; conditions: read-out: KDR-1
# T5 construct: Kinases are expressed as either kinase domains or full length constructs; made in house
# Source text: as §1, §2, §3
# c-Met = target: T6, c-Met (Homo sapiens, UniProt P08581); assay: Kinase inhibition assay (33P transfer), c-Met; conditions: Table 2, kinase inhibition class; read-out: Met-1
# T6 construct: Kinases are expressed as either kinase domains or full length constructs; made in house
# Source text: as §1, §4
# as §3, with “Kinase activity and inhibition are measured essentially by established protocols (Braunwalder et al., 1996). Briefly,” for “Briefly,”, “detector. The IC50 is determined by the concentration of compound that causes a 50% reduction in the amount of […] incorporated onto the substrate bound to the plate.” for “detector.”
# AKT = target: T7, AKT (Homo sapiens, UniProt Q9Y243); assay: Kinase inhibition assay (33P transfer), AKT; conditions: Table 2, kinase inhibition class; read-out: AKT3-1
# T7 construct: Kinases are expressed as either kinase domains or full length constructs; made in house
# Source text: as §1, §2, §3
# T1 sequence (P06239 whole entry, species assumed, the tested form may be a part): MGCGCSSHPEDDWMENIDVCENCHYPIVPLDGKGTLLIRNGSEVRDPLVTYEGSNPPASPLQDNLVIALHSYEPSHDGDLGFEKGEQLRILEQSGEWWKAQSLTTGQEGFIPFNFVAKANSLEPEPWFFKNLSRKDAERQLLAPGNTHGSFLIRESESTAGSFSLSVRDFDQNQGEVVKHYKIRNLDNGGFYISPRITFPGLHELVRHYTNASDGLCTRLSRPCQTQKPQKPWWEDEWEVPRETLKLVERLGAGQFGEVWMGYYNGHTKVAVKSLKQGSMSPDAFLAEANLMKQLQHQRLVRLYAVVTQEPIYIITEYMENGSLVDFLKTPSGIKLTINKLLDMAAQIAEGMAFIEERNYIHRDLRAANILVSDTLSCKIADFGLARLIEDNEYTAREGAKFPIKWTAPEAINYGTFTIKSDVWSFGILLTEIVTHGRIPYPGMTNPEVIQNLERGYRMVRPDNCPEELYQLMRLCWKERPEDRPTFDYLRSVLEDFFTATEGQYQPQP
# T6 sequence (P08581 25-1390): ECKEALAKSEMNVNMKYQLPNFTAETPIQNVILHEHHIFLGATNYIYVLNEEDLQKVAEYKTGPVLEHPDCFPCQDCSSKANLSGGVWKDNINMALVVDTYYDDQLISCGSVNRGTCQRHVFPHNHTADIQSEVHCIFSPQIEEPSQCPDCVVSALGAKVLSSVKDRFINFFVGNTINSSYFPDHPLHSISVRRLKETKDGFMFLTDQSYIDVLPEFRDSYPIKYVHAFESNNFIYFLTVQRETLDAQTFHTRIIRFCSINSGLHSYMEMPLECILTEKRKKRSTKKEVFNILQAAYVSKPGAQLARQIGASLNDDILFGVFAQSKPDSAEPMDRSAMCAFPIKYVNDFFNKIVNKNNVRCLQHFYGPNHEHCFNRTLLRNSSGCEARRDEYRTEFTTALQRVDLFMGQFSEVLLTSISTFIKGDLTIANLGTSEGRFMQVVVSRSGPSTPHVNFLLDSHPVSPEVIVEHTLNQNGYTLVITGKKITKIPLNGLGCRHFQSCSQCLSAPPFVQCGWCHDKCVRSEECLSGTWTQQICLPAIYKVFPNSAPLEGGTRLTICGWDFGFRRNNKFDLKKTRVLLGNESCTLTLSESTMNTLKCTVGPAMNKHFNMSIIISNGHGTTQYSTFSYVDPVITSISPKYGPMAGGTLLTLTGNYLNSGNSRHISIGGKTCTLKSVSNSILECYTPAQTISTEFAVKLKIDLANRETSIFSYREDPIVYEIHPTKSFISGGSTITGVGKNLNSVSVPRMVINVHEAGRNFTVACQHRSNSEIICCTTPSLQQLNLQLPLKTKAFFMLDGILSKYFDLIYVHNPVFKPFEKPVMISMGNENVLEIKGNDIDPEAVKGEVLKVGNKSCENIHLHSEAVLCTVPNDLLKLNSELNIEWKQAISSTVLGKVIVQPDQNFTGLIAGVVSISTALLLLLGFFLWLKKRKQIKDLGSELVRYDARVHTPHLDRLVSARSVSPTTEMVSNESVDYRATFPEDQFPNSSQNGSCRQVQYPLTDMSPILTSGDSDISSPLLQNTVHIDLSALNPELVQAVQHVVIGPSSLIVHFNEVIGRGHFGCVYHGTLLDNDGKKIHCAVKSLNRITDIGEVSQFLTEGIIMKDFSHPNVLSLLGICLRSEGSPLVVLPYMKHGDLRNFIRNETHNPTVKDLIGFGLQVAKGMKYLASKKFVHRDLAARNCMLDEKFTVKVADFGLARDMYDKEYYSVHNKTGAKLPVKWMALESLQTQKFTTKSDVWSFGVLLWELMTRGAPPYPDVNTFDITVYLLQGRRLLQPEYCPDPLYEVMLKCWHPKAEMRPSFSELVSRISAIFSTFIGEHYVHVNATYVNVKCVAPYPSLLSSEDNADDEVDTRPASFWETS
# T7 sequence (Q9Y243 whole entry, the tested form may be a part): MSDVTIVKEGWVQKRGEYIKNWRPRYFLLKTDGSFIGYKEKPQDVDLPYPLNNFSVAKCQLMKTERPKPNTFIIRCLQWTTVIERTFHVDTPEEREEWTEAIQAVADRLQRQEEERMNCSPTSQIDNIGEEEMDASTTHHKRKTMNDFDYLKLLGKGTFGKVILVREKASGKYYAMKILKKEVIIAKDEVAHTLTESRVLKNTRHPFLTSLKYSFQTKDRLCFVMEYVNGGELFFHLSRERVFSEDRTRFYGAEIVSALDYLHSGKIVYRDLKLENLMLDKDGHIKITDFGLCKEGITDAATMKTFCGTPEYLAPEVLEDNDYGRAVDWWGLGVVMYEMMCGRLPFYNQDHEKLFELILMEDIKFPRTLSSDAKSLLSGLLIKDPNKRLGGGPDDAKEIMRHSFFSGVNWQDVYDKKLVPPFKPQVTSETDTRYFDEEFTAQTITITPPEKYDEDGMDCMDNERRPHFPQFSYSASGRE
# T5 sequence (P35968 20-1356, species assumed): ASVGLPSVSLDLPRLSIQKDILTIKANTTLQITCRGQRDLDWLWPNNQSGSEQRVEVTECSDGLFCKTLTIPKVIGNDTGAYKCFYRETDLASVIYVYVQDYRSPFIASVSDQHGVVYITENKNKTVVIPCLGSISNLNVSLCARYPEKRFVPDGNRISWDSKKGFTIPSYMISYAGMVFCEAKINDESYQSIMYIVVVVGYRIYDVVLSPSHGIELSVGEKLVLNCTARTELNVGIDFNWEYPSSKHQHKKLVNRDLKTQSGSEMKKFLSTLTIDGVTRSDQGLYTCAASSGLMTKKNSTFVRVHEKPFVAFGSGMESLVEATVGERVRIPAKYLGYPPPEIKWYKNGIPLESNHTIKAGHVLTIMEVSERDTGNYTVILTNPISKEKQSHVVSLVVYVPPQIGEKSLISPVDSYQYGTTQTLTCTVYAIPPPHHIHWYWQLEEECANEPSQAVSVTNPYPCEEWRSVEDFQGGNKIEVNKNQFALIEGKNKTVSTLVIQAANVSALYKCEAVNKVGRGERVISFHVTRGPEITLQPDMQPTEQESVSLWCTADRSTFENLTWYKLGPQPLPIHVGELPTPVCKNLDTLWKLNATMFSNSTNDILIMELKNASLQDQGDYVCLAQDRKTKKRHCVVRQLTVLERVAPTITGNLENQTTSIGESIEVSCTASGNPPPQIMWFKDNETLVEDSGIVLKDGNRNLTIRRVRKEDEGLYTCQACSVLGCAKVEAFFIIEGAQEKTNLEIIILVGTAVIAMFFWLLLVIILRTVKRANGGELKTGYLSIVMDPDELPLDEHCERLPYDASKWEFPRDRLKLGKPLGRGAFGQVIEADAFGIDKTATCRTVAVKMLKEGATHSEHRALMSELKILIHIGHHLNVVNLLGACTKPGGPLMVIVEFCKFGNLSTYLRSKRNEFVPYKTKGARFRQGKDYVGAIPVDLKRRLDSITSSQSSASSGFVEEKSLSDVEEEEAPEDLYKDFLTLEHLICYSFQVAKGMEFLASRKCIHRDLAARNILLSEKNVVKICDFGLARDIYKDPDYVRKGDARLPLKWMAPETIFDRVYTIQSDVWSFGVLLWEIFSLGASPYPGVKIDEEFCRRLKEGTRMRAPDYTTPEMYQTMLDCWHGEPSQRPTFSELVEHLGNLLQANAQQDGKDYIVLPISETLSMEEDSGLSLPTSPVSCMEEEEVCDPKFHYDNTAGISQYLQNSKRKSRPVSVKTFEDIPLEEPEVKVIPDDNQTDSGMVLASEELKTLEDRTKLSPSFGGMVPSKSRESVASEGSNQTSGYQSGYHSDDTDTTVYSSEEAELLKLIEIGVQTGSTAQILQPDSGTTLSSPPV
# T4 sequence (P00533 25-1210, species assumed): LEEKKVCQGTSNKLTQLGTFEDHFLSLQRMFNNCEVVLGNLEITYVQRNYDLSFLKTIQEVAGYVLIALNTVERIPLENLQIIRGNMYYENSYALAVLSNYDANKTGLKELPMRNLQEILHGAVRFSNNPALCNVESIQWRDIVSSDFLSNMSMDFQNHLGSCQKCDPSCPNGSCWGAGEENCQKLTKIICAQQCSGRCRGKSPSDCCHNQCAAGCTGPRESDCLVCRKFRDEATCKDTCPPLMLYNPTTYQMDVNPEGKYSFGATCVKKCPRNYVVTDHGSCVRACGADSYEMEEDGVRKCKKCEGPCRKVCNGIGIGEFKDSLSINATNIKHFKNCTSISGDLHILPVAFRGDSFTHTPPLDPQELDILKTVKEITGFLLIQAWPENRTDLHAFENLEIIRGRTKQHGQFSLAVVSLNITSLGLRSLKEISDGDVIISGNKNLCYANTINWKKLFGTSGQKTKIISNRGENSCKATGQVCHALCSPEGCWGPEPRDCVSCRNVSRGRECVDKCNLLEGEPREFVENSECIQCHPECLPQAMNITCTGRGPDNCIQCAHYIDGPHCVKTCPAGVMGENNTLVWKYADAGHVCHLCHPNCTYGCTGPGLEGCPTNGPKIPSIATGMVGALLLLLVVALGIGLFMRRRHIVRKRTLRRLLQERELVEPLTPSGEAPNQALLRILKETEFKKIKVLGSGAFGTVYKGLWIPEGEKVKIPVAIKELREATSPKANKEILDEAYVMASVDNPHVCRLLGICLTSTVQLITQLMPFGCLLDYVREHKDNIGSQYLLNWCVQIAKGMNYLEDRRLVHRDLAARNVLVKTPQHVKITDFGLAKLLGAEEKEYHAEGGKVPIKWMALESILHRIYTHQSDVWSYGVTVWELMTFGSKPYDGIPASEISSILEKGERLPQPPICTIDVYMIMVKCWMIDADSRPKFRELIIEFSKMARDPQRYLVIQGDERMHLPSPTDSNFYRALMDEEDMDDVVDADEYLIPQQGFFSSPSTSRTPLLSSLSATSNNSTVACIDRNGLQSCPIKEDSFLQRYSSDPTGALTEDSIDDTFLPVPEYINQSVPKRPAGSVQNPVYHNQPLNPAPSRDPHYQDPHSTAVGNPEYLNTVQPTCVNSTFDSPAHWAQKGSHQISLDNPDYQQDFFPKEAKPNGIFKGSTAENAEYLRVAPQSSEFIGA
SMILES,IC50 (Lck),IC50 (Zap-70),IC50 (Itk),IC50 (EGFR),IC50 (Kdr),IC50 (c-Met),IC50 (AKT),IC50 (Lck; Table 3),IC50 (Zap-70; Table 3),IC50 (Itk; Table 3),IC50 (Kdr; Table 3)
COC(=O)n1c(=O)n(-c2ncnc(Nc3cc(OC)c(OC)c(OC)c3)n2)c2ccccc21 [Compound 1032],> 9.95 µM,> 9.95 µM,> 9.95 µM,> 9.95 µM,0.884 to 5.3 µM,> 9.95 µM,> 9.95 µM,,,,
COc1cc(Nc2ncnc(-n3c(=O)sc4ccccc43)n2)cc(OC)c1OC [Compound 424],,,,> 10.9 µM,,> 10.9 µM,> 10.9 µM,> 10.9 µM,> 10.9 µM,> 10.9 µM,5.83 to 8.51 µM
COc1cc(Nc2ncnc(-c3ccc(NCc4ccccc4)nc3)n2)cc(OC)c1OC [Compound 471],> 10.1 µM,> 10.1 µM,> 10.1 µM,> 10.1 µM,> 10.1 µM,> 10.1 µM,> 10.1 µM,,,,
COc1cc(Nc2ncnc(-n3c(N)nc4ccccc43)n2)cc(OC)c1 [Compound 477],1.1 to 6.6 µM,> 12.4 µM,1.1 to 6.6 µM,> 12.4 µM,< 1.1 µM,> 12.4 µM,> 12.4 µM,,,,
O=c1[nH]c2ccccc2n1-c1ncnc(Nc2cccc3ncccc23)n1 [Compound 686],> 12.7 µM,> 12.7 µM,> 12.7 µM,> 12.7 µM,> 12.7 µM,> 12.7 µM,> 12.7 µM,,,,
COc1cc(Nc2ncnc(-c3ccc(N4CCOCC4)nc3)n2)cc(OC)c1OC [Compound 434],,,,> 10.6 µM,,> 10.6 µM,> 10.6 µM,> 10.6 µM,> 10.6 µM,> 10.6 µM,> 10.6 µM
FC(F)(F)c1cccc(Nc2ncnc(-n3cccc3)n2)c1 [Compound 277],,,,> 14.7 µM,,> 14.7 µM,,> 14.7 µM,> 14.7 µM,> 14.7 µM,1.31 to 7.86 µM
Cc1cc(Br)ccc1Nc1ncnc(-n2cccc2)n1 [Compound 282],,,,> 13.6 µM,,7.27 to 10.6 µM,,> 13.6 µM,> 13.6 µM,> 13.6 µM,> 13.6 µM
Nc1ncnc(Nc2nc(-c3ccc(Cl)cc3)cs2)n1 [Compound 1016],,,,> 14.8 µM,,> 14.8 µM,,> 14.8 µM,> 14.8 µM,> 14.8 µM,> 14.8 µM
Nc1ncnc(Nc2cccc(Cl)c2)n1 [Compound 1019],,,,> 20.3 µM,,> 20.3 µM,,> 20.3 µM,> 20.3 µM,> 20.3 µM,10.8 to 15.8 µM
Nc1ncnc(Nc2ccc(F)cc2F)n1 [Compound 1014],,,,> 20.2 µM,,> 20.2 µM,,> 20.2 µM,> 20.2 µM,> 20.2 µM,> 20.2 µM
Nc1ncnc(Nc2cccc(C(F)(F)F)c2)n1 [Compound 1015],,,,> 17.6 µM,,> 17.6 µM,,> 17.6 µM,> 17.6 µM,> 17.6 µM,> 17.6 µM
Fc1ccc(Nc2ncnc(-n3cccc3)n2)cc1 [Compound 284],,,,> 17.6 µM,,> 17.6 µM,,> 17.6 µM,> 17.6 µM,> 17.6 µM,13.7 to 17.6 µM
Nc1ncnc(Nc2cc(Cl)ccc2O)n1 [Compound 1022],,,,> 18.9 µM,,> 18.9 µM,,> 18.9 µM,> 18.9 µM,> 18.9 µM,> 18.9 µM
Nc1ncnc(Nc2nc(-c3ccccc3)cs2)n1 [Compound 1020],,,,> 16.6 µM,,> 16.6 µM,,> 16.6 µM,> 16.6 µM,> 16.6 µM,> 16.6 µM
Clc1cccc(Nc2ncnc(-n3cccc3)n2)c1 [Compound 275],,,,> 16.6 µM,,12.9 to 16.6 µM,,> 16.6 µM,> 16.6 µM,> 16.6 µM,1.47 to 8.83 µM
ClCc1ccccc1Nc1ncnc(-n2cccc2)n1 [Compound 278],,,,> 15.7 µM,,> 15.7 µM,,> 15.7 µM,> 15.7 µM,> 15.7 µM,> 15.7 µM
Cc1ccc(Nc2ncnc(-n3cccc3)n2)cc1Cl [Compound 276],,,,> 15.7 µM,,> 15.7 µM,,> 15.7 µM,> 15.7 µM,> 15.7 µM,1.4 to 8.4 µM
Clc1cc(Cl)cc(Nc2ncnc(-n3cccc3)n2)c1 [Compound 274],,,,> 14.7 µM,,> 14.7 µM,,> 14.7 µM,> 14.7 µM,> 14.7 µM,1.31 to 7.84 µM
FC(F)(F)c1ccc(Cl)c(Nc2ncnc(-n3cccc3)n2)c1 [Compound 283],,,,> 13.2 µM,,> 13.2 µM,,> 13.2 µM,> 13.2 µM,> 13.2 µM,> 13.2 µM
Nc1ncnc(Nc2cccc(Nc3ncnc(N)n3)c2)n1 [Compound 1027],,,,> 15.2 µM,,> 15.2 µM,,> 15.2 µM,> 15.2 µM,> 15.2 µM,> 15.2 µM
Clc1ccccc1Nc1ncnc(-n2cccc2)n1 [Compound 280],,,,> 16.6 µM,,> 16.6 µM,,> 16.6 µM,> 16.6 µM,> 16.6 µM,> 16.6 µM
Cc1cccc(Nc2ncnc(-n3cccc3)n2)c1C [Compound 281],,,,> 17 µM,,> 17 µM,,> 17 µM,> 17 µM,> 17 µM,> 17 µM
COc1ccc(Nc2ncnc(-n3cccc3)n2)c(OC)c1 [Compound 273],,,,> 15.1 µM,,> 15.1 µM,,> 15.1 µM,> 15.1 µM,> 15.1 µM,> 15.1 µM
Cc1ccc(Nc2ncnc(N)n2)cc1 [Compound 1017],,,,> 22.4 µM,,> 22.4 µM,,> 22.4 µM,> 22.4 µM,> 22.4 µM,> 22.4 µM
COc1ccccc1Nc1ncnc(-n2cccc2)n1 [Compound 279],,,,> 16.8 µM,,> 16.8 µM,,> 16.8 µM,> 16.8 µM,> 16.8 µM,> 16.8 µM
Brc1ccc(Nc2ncnc(-n3cccc3)n2)cc1 [Compound 272],,,,> 14.2 µM,,> 14.2 µM,,> 14.2 µM,7.59 to 11.1 µM,> 14.2 µM,> 14.2 µM
